Laboratory results as given in US6410735B1, “1-(4-arylpiperazin-1-y1)-ω-[N-(α,ω-dicarboximido)]-alkanes useful as uro-selective α1-adrenoceptor blockers” (Ranbaxy Laboratories Limited, priority 1997, dated 2002).
Where a name gives a salt, the structure may show the parent alone. Read-outs that look alike come from different tables or passages of the source. One block for each compound: values may come before it.

Key:
α1B-adrenoceptor = target: T1, α1B-adrenoceptor (Rattus norvegicus, UniProt P15823); assay: Receptor binding assay, [3H]prazosin, rat liver membranes; settings: rat liver membranes, 0.5 nM [3H]prazosin; read-out: RBA (Ki nM) α1B
T1 construct: from tissue; host or cells: rat liver membranes
T1 sequence (P15823 1-515): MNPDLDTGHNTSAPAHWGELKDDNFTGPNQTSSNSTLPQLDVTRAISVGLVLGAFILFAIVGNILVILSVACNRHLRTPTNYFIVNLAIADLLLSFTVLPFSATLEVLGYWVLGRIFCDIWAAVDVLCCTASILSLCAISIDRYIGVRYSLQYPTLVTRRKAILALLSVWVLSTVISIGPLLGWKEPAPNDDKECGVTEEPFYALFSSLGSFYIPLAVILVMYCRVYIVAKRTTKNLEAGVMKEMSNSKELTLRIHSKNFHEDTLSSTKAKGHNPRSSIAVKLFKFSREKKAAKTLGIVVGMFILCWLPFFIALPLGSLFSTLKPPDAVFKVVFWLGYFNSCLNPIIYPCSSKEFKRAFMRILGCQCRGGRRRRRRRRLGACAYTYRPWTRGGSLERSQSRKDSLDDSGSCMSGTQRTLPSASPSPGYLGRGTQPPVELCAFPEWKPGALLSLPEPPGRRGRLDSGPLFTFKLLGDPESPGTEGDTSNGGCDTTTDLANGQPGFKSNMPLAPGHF
Experimental: (§1) Receptor binding assays, (RBA's) were performed for native α1-adrenoceptors. Rat submaxillary and rat liver membrane preparations were used to assess the affinity for α1A and α1B subtypes, respectively. Aliquots of membrane protein ([…]) were incubated in a final volume of […] assay buffer (50 mM Tris, 0.5 mM EDTA at pH 7.4) with 0.5 nM [^3H] prazosin for 60 mins at 28 ° C. Reaction was stopped by rapid filtration on Millipore filters. Filters were dried and bound radioactivity counted. Non-specific binding was determined in the presence of 0.3 mM prazosin.

α1A-adrenoceptor = target: T2, α1A-adrenoceptor (Rattus norvegicus, UniProt P43140); assay: Receptor binding assay, [3H]prazosin, rat submaxillary membranes
T2 construct: from tissue; host or cells: rat submaxillary gland membranes
T2 sequence (P43140 1-466): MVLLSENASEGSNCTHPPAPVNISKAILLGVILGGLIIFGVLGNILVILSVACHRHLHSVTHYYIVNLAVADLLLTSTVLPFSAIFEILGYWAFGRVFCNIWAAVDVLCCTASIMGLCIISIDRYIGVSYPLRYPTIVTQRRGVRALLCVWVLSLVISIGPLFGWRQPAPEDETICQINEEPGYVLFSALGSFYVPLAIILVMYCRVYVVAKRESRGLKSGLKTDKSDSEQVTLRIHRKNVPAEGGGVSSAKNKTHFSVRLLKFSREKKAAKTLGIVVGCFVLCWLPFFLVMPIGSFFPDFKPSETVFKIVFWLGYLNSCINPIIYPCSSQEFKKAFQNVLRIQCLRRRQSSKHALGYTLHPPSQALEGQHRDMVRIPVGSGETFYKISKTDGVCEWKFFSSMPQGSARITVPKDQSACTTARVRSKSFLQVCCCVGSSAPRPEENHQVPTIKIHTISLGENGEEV
Experimental: as §1

[1] = target: T3, α1A-adrenoceptor (prostate) (Rattus norvegicus, UniProt P43140); assay: In vitro functional assay, phenylephrine-induced contraction of isolated prostate; assay type: cell-based
T3 construct: Aorta, prostate and spleen tissues were isolated from urethane anaesthetized (1.5 gm/kg) male wistar rats; from tissue; host or cells: isolated prostate of male Wistar rats
T3 sequence (P43140 1-466): T2 sequence (P43140 1-466)
Text: (§2) In order to study selectivity of action of the present compounds towards different α-adrenoceptor subtypes, the ability of these compounds to antagonize α1-adrenoceptor agonist induced contractile response of aorta (α1D), prostate (α1A) and spleen (α1B) was studied. Aorta, prostate and spleen tissues were isolated from urethane anaesthetized (1.5 gm/kg) male wistar rats. Isolated tissues were mounted in organ bath containing Krebs Henseleit buffer of the following composition (mM): NaCl 118; KCl 4.7; CaCl2 2.5; MgSO4·H2O 1.2; NaHCO3 25; KH2PO4 1.2; glucose 11.5. Buffer was maintained at 37° C. and aerated with a mixture of 95% O2 and 5% CO2. A resting tension of 2 g (aorta) or 1 g (spleen and prostate) was applied to tissues. Contractile response was monitored using a force displacement transducer and recorded on chart recorders. Tissues were allowed to equilibrate for 2 hours. At the end of equilibration period, concentration response curves to norepinephrine (aorta) and phenylephrine (spleen and prostate) were obtained in the absence and presence of the tested compound (at concentrations of 0.1, 1 and 10 μM). Antagonist affinity was calculated and expressed as PKB values in Table 1.

[2] = target: T4, α1B-adrenoceptor (spleen) (Rattus norvegicus, UniProt P15823); assay: In vitro functional assay, phenylephrine-induced contraction of isolated spleen; assay type: cell-based
T4 construct: Aorta, prostate and spleen tissues were isolated from urethane anaesthetized (1.5 gm/kg) male wistar rats; from tissue; host or cells: isolated spleen of male Wistar rats
T4 sequence (P15823 1-515): T1 sequence (P15823 1-515)
Text: as §2

α1D-adrenoceptor (aorta) = target: T5, α1D-adrenoceptor (aorta) (Rattus norvegicus, UniProt P23944); assay: In vitro functional assay, norepinephrine-induced contraction of isolated aorta; assay type: cell-based
T5 construct: Aorta, prostate and spleen tissues were isolated from urethane anaesthetized (1.5 gm/kg) male wistar rats; from tissue; host or cells: isolated aorta of male Wistar rats
T5 sequence (P23944 1-561): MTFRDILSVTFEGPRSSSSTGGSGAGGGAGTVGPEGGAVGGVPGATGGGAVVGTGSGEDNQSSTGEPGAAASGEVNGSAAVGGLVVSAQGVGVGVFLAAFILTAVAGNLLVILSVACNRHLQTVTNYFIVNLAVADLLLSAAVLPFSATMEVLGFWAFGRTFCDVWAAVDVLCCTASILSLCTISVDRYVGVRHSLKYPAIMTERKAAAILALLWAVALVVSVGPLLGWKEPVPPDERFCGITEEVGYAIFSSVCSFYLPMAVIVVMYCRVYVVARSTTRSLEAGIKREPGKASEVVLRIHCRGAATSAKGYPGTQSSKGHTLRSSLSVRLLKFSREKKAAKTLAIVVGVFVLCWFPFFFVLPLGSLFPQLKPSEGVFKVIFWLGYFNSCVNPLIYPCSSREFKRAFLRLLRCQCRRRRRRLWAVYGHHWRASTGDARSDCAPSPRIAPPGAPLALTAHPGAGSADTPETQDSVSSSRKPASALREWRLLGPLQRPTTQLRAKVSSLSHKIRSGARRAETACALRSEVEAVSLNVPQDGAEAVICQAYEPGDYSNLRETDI
Text: as §2

[3] = rat submaxillary membranes, 0.5 nM [3H]prazosin, read-out: RBA (Ki nM) α1A
[4] = rat prostate, phenylephrine, read-out: In Vitro Functional Assay (pKB) α1A (converted)
[5] = rat spleen, phenylephrine, read-out: In Vitro Functional Assay (pKB) α1B (converted)
[6] = rat aorta, norepinephrine, read-out: In Vitro Functional Assay (pKB) α1D (converted)

melting point: 261 to 262 °C
Compound: O=C1CCC(=O)N1CCCN1CCN(c2ccccn2)CC1 (as salt: hydrochloride) [Compound 4, 1-[4-(2-Pyridyl)piperazin-1-yl]-3-(2,5-dioxopyrrolidin-1-yl)propane]

melting point: 232 to 234 °C
Compound: COc1ccccc1N1CCN(CCN2C(=O)CCC2=O)CC1 (as salt: hydrochloride) [Compound 10, 1-[4-(2-Methoxyphenyl)piperazin-1-yl]-2-(2,5-dioxopyrrolidin-1-yl)ethane]

Ki (α1B-adrenoceptor): 176 nM
Ki (α1A-adrenoceptor; [3]): 2130 nM
Kb [1, 4]: 316 nM
Kb [2, 5]: 200 nM
Kb (α1D-adrenoceptor (aorta); [6]): 316 nM
Compound: Cc1ccc(N2CCN(CCCN3C(=O)CCCC3=O)CC2)cc1C [Compound 21, 1-[4-(3,4-Dimethylphenyl)piperazin-1-yl]-3-(2,6-dioxopiperidin-1yl)propane]

Continued, compound first:

Compound: O=C1CCC(=O)N1CCCN1CCN(c2cccc(C(F)(F)F)c2)CC1 (as salt: hydrochloride) [Compound 3, 1-[4-(3-Trifluoromethylphenyl)piperazin-1-yl]-3-(2,5-dioxopyrrolidin-1-yl)propane]
melting point: 218 to 220 °C

Compound: O=C1CCC(=O)N1CCCN1CCN(c2cccc(Cl)c2)CC1 (as salt: hydrochloride) [Compound 5, 1-[4-(3-Chlorophenyl)piperazin-1-yl]-3-(2,5-dioxopyrrolidin-1-yl)propane]
melting point: 230 to 231 °C

Compound: O=C1CCCC(=O)N1CCCN1CCN(c2cccc(C(F)(F)F)c2)CC1 (as salt: hydrochloride) [Compound 16, 1-[4-(3-Trifluoromethylphenyl)piperazin-1-yl]-3-(2,6-dioxopiperidin-1-yl)propane]
melting point: 228 to 229 °C

Compound: O=C1CCCC(=O)N1CCCN1CCN(c2ccccn2)CC1 (as salt: hydrochloride) [Compound 19, 1-[4-(2-Pyridyl)piperazin-1-yl)-3-(2,6-dioxopiperidin-1-yl)propane]
melting point: 244 to 245 °C

Compound: O=C1CCCC(=O)N1CCCN1CCN(c2cccc(Cl)c2)CC1 (as salt: hydrochloride) [Compound 20, 1-[4-(3-Chlorophenyl)piperazin-1-yl]-3-(2,6-dioxopiperidin-1-yl)propane]
melting point: 214 to 215 °C

Compound: O=C1CCCC(=O)N1CCCN1CCN(c2ccccc2F)CC1 [Compound 17, 1-[4-(2-Fluorophenyl)piperazin-1-yl]-3-(2,6-dioxopiperidin-1-yl)propane]
Ki (α1B-adrenoceptor): 396 nM
Ki (α1A-adrenoceptor): 21 nM
Kb [1]: 10 nM
Kb [2]: 79.4 nM
Kb (α1D-adrenoceptor (aorta)): 12.6 nM

Compound: Cc1ccccc1N1CCN(CCCN2C(=O)CCCC2=O)CC1 [Compound 18, 1-[4-(2-Methylphenyl)piperazin-1-yl]-3-(2,6-dioxopiperidin-1yl)propane]
Ki (α1B-adrenoceptor): 267 nM
Ki (α1A-adrenoceptor; [3]): 9 nM
Kb [1, 4]: 6.31 nM
Kb [2, 5]: 3160 nM
Kb (α1D-adrenoceptor (aorta); [6]): 3.16 nM
